# Test results as given in patent US11230535B2, “CFTR regulators and methods of use thereof” (THE REGENTS OF THE UNIVERSITY OF CALIFORNIA, priority 2015, dated 2022).
# Entries after “also recorded” stand apart in the source; their conditions may differ.
# Columns and labels:
# [1] = Pharmacokinetics in mice (plasma LC/MS); type: in vivo, mouse
# Protocol: (§1) All animal experiments were approved by UCSF Institutional Animal Care and Use Committee. Female CD1 mice were treated with 10 mg/kg CFTRact-J027 (saline containing 5% DMSO and 10% Kolliphor HS 15) either intraperitoneally (ip) or orally. Blood was collected at 15, 30, 60, 150, 240 and 360 min after treatment by orbital puncture and centrifuged at 5000 rpm for 15 min to separate plasma. Plasma samples (60 μL) were mixed with 300 μL acetonitrile and centrifuged at 13000 rpm for 20 min, and 90 μL of the supernatant was used for LC/MS. The solvent system consisted of a linear gradient from 5 to 95% acetonitrile over 16 min (0.2 ml/min flow). Mass spectra was acquired on a mass spectrometer (Waters 2695 and Micromass ZQ) using electrospray (+) ionization, mass ranging from 100 to 1500 Da, cone voltage 40 V. Calibration standards were prepared in plasma from untreated mice to which known amounts of CFTRact-J027 were added.
# as §1, with “Pharmacokinetics. All” for “All”
# mouse liver microsomes = test: In vitro metabolic stability in mouse liver microsomes; type: in vitro ADME
# Protocol: CFTRact-J027 (5 μM) was incubated for specified times at 37° C. with mouse liver microsomes (1 mg protein/ml; Sigma-Aldrich) in potassium phosphate buffer (100 mM) containing 1 mM NADPH, as described. The mixture was then chilled on ice, and 0.5 ml of ice-cold ethyl acetate was added. Samples were centrifuged for 15 min at 3000 rpm, the supernatant evaporated to dryness, and the residue was dissolved in 100 μL mobile phase (acetonitrile:water, 3:1) for LC/MS and assayed as described above.
# In vitro metabolic stability. CFTRact-J027 (5 μM) was incubated for specified times at 37° C. with mouse liver microsomes (1 mg protein/ml; Sigma-Aldrich) in potassium phosphate buffer (100 mM) containing 1 mM NADPH, as described. The mixture was then chilled on ice, and 0.5 ml of ice-cold ethyl acetate was added. Samples were centrifuged for 15 min at 3000 rpm, the supernatant evaporated to dryness, and the residue was dissolved in 100 μL mobile phase (acetonitrile:water, 3:1) for LC/MS and assayed as described above.
# [2] = test system: closed mid-jejunal loops of cystic fibrosis mice; test: In vivo intestinal fluid absorption in closed mid-jejunal loops of CF mice; design: species or system mouse; settings: 30 min
# Protocol: (§2) Mice (wildtype or CF) were given access to 5% dextrose water but not solid food for 24 h before experiments. Mice were anesthetized with isoflurane and body temperature was maintained during surgery at 36-38° C. using a heating pad. A small abdominal incision was made to expose the small intestine, and closed mid-jejunal loops (length 2-3 cm) were isolated by sutures. Loops were injected with 100 μL vehicle alone or 100 μg CFTRact-J027 in vehicle. The abdominal incision was closed with sutures, and mice were allowed to recover from anesthesia. Intestinal loops were removed at 90 min and loop length and weight were measured to quantify fluid secretion. Intestinal absorption was measured in CF mice (to prevent secretion) as described above, except that the loops were removed at 0 or 30 min. Absorption was calculated as 1−(loop weight at 0 min−loop weight at 30 min)/loop weight at 0 min.
# (§3) In vivo intestinal secretion and absorption. Mice (wildtype or CF) were given access to 5% dextrose water but not solid food for 24 h before experiments. […] Intestinal loops were removed at 90 min and loop length and weight were measured to quantify fluid secretion. Intestinal absorption was measured in CF mice (to prevent secretion) as described above, except that the loops were removed at 0 or 30 min. Absorption was calculated as 1−(loop weight at 0 min−loop weight at 30 min)/loop weight at 0 min.
# closed mid-jejunal loops = test: In vivo intestinal fluid secretion in closed mid-jejunal loops; design: species or system mouse; settings: 90 min
# Protocol: as §2, §3
# ΔF508-CFTR = target: T1, ΔF508-CFTR (Homo sapiens, UniProt P13569, DEL508-508); test: Short-circuit current in FRT cells expressing ΔF508-CFTR after corrector (VX-809); type: cell-based; settings: overnight corrector
# T1 construct: expressed in transfected cells; host or cells: Fischer rat thyroid (FRT) cells
# T1 sequence (P13569 with tags, fused parts or gaps DEL508-508): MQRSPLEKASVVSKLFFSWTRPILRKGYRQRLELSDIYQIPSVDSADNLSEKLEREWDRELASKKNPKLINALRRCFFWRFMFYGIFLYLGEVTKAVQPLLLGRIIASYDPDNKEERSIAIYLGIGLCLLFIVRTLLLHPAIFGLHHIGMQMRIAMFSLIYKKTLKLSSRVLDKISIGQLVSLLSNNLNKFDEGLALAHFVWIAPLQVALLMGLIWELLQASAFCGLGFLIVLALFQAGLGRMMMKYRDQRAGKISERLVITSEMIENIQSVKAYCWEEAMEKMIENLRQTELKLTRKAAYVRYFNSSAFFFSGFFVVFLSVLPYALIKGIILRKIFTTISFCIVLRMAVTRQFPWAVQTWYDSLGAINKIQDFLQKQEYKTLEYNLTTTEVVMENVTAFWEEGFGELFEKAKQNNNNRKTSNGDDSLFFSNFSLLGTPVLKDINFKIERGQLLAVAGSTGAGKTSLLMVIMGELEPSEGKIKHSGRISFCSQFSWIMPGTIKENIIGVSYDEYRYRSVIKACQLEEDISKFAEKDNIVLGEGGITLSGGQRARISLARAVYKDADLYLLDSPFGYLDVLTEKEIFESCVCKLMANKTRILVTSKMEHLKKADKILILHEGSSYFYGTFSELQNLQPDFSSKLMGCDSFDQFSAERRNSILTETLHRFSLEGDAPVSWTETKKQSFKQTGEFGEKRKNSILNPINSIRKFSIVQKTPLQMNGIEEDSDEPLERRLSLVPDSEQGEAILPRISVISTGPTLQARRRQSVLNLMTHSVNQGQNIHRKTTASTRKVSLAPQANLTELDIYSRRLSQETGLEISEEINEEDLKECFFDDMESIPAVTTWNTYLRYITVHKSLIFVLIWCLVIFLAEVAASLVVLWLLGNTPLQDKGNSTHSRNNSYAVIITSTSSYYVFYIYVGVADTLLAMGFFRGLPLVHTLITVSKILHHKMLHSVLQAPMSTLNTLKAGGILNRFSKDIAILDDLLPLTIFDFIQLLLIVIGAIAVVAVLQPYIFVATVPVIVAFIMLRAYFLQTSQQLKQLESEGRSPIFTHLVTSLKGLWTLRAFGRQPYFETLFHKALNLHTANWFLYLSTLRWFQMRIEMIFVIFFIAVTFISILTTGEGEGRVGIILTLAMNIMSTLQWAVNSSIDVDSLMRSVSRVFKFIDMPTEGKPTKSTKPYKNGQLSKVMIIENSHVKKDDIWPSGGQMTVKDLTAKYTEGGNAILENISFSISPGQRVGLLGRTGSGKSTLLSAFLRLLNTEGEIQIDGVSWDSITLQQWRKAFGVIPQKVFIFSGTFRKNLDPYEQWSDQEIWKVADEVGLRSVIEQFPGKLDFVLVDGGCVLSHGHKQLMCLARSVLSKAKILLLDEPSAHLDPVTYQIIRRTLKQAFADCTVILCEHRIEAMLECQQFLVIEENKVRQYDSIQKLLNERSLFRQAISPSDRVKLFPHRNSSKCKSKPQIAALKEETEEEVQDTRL
# Protocol: FIGS. 9A-9E. Characterization of CFTR activation by CFTRact-J027. Short-circuit current measured in FRT cells expressing human wild-type CFTR (FIG. 9A) and ΔF508-CFTR (FIG. 9C) showing responses to indicated concentrations of forskolin (fsk), CFTRact-J027, and VX-770. The ΔF508-CFTR-expressing FRT cells were corrected with 3 μM VX-809 at 37° C. for 24 h before measurement. CFTRinh-172 (Inh-172, 10 μM) was added where indicated. FIG. 9B. CFTRact-J027 concentration-dependent activation of wild-type CFTR Cl^− current (S.E.; n=3 cultures). FIG. 9D. Short-circuit current in mouse colon showing responses to indicated concentrations of forskolin (fsk), CFTRact-J027, and CFTRinh-172. FIG. 9E. Assay of cAMP concentration in FRT cells measured following 10-min incubation with indicated concentrations of forskolin and 5 μM CFTRact-J027. Positive controls included forskolin (100 nM and 20 μM), and forskolin plus 3-isobutyl-1-methylxanthine (IBMX, 100 μM) (mean±SE, n=4-8).
# The increase in current at high CFTRact-J027 was further increased by forskolin, which may be a consequence of activation of a basolateral membrane cAMP-sensitive K^+ channel that increases the driving force for apical membrane Cl^− secretion.
structure (smiles),measurement,setting,value
"Nc1ccc([N+](=O)[O-])cc1-c1nc2ccccc2n(Cc2ccccc2)c1=O [CFTRact-J027, 3-(2-amino-5-nitrophenyl)-1-benzylquinoxalin-2(1H)-one]",serum elimination half-life,[1]; 10 mg/kg ip,~16 min
same,serum concentration at 150 min,"[1]; 10 mg/kg ip, 150 min",undetectable
same,"bioavailability, in words",[1]; 10 mg/kg oral,very low bioavailability; also recorded: minimal bioavailability
same,blood levels,[1]; 10 mg/kg oral,< 200 nM
same,serum concentration at other time points,[1]; 10 mg/kg oral,undetectable
same,serum concentration at 30 min,"[1]; 10 mg/kg oral, 30 min",180 nM
same,elimination half-life in microsomes,"mouse liver microsomes; 5 μM, mouse liver microsomes, NADPH",~21 min
same,original compound remaining at 60 min,mouse liver microsomes; 60 min,7%
same,"hepatic microsomal metabolism, in words","mouse liver microsomes; mouse liver microsomes, NADPH",rapid hepatic metabolism; also recorded: rapidly metabolized
same,intestinal fluid absorption,[2],did not affect intestinal fluid absorption
same,increase in loop weight/length ratio,"closed mid-jejunal loops; 100 μg per loop, wild-type mice",140%
same,loop fluid secretion in cystic fibrosis mice,closed mid-jejunal loops; CF mice,without effect
same,potentiation of ΔF508-CFTR,ΔF508-CFTR,substantially less potent than ivacaftor; also recorded: only a weak potentiator
